Compared with `COC(=O)c1cc(F)cc(Br)c1N`, `O=C(O)c1cc(F)cc2nccnc12` is higher in melting point: 36 to 38 °C for the first, 219 to 221 °C for the second.

First: O=Cc1ccc(OCCC(=O)O)cc1
Second: O=S(=O)(Cl)CCOc1ccc(F)cc1
The melting point of the first is higher: 132 to 134 °C for the first, 34 to 36 °C for the second.

First: Nc1ccc2ccn(Cc3ccccc3)c2c1
Second: Cc1cc(N)ccc1NC(=O)c1ccco1
The melting point of the first is lower: 119 to 121 °C for the first, 173 to 175 °C for the second.

First: CCc1cc(O)ccc1Cl
Second: CC1=NN(Cc2ccc(Cl)cc2Cl)C(=O)C1
The melting point of the first is lower: 45 to 50 °C for the first, 128 to 130 °C for the second.

First: CNc1ccc([N+](=O)[O-])c2nonc12
Second: Nc1nc(-c2ccc([N+](=O)[O-])cc2)n[nH]1
The melting point of the first is lower: 257 to 259 °C for the first, 278 to 280 °C for the second.

Compared with `O=CC1=C(Sc2nc3ccccc3o2)CCCC1`, `Nc1ccc2nc(N3CCOCC3)oc2c1` is higher in melting point: 93 to 95 °C for the first, 176 to 178 °C for the second.

First: Nc1cccc(N2C(=O)CNC2=O)c1
Second: N#Cc1cccc(N2C(=O)CCC2=O)c1
The melting point of the first is higher: 156 to 158 °C for the first, 134 to 136 °C for the second.

First: COc1cc(/C=C/C(=O)O)cc(Cl)c1OC(C)C
Second: CCCCOc1c(Cl)cc(C(=O)O)cc1OCC
The melting point of the first is higher: 113 to 115 °C for the first, 89 to 91 °C for the second.

First: O=C(O)c1c(Cl)cccc1Oc1ccc(Cl)cc1
Second: CC(Br)C(=O)c1ccc(Oc2ccccc2)cc1 (stereo not drawn)
The melting point of the first is higher: 109 to 111 °C for the first, 86 to 88 °C for the second.

First: CC(=O)c1nnn(-c2cccc(Cl)c2)c1C
Second: Cc1cc(C(=O)CCl)c(C)n1-c1cccc(F)c1
The melting point of the first is lower: 82 to 84 °C for the first, 90 to 94 °C for the second.

First: O=C(O)CC=Cc1cccc(F)c1
Second: O=C(O)CNc1cccc(C(F)(F)F)c1
The melting point of the first is lower: 64 to 66 °C for the first, 123 to 125 °C for the second.

First: COc1cc2c(cc1OC)C(c1cccs1)NCC2 (stereo not drawn)
Second: COc1ccc(OC)c(CBr)c1
The melting point of the first is higher: 112 to 115 °C for the first, 77 to 79 °C for the second.

First: O=C(O)c1cccc(Nc2ncccn2)c1
Second: NC(=NO)c1ccc(Oc2ccccc2)nc1
The melting point of the first is higher: 270 to 272 °C for the first, 159 to 161 °C for the second.

First: Cc1cc(N)[nH]c(=O)c1
Second: Nc1n[nH]c(=O)[nH]c1=O
The melting point of the first is lower: 256 to 258 °C for the first, 334 to 336 °C for the second.

First: Cc1ccc(S(=O)(=O)OCc2nc3ccccc3s2)cc1
Second: Oc1ccc(-c2noc(-c3cccc(Br)c3)n2)cc1
The melting point of the first is lower: 108 to 110 °C for the first, 222 to 224 °C for the second.

Compared with `Cc1cc(C)c(S(=O)(=O)Cl)cc1C(=O)O`, `Cn1ncc2c(O)c(C(=O)O)cnc21` is higher in melting point: 189 to 191 °C for the first, 193 to 195 °C for the second.

First: Cn1ccnc1SCC(=O)O
Second: Cc1nc(Cl)sc1C(=O)O
The melting point of the first is lower: 88 to 90 °C for the first, 149 to 151 °C for the second.

First: CCCCOc1ccc(-c2nnc(CCl)o2)cc1
Second: CCCOc1ccc(C#N)cc1OC
The melting point of the first is lower: 77 to 79 °C for the first, 90 to 92 °C for the second.

`Cc1ccccc1C(C)(C)C(=O)O` and `CCOC(=O)c1c(N)sc(-c2ccccc2)c1C` cannot be ordered by melting point: 93 to 95 °C for the first, 94 to 96 °C for the second.

First: Nc1nnc(C23CC4CC(CC(C4)C2)C3)s1
Second: c1nc(C2CCCCN2)n[nH]1 (stereo not drawn)
The melting point of the first is higher: 197 to 199 °C for the first, 104 to 106 °C for the second.

First: CC(C)CNC(=O)N1CCCC(C(=O)O)C1 (stereo not drawn)
Second: COC(=O)C(=O)CC(=O)c1ccc(Cl)s1
The melting point of the first is higher: 106 to 108 °C for the first, 103 to 105 °C for the second.

Compared with `Cn1ncc2cn[nH]c2c1=O`, `Oc1cccc2cn[nH]c12` is lower in melting point: 246 to 248 °C for the first, 181 to 183 °C for the second.

Compared with `Nc1nc(S)nc2sccc12`, `S=C1Cc2ccccc2N1` is lower in melting point: 275 to 277 °C for the first, 146 to 148 °C for the second.

Compared with `O=C(O)c1cc2occc2s1`, `Cc1oc(-c2ccc(Cl)c(Cl)c2)nc1C(=O)O` is higher in melting point: 188 to 190 °C for the first, 264 to 266 °C for the second.

Compared with `Cc1ccc(N2CCCC2)c(C#N)c1`, `Cc1nc2c(Cl)cccc2n1O` is higher in melting point: 42 to 44 °C for the first, 239 to 241 °C for the second.

Compared with `Cc1sc2nc(-c3cccnc3)nc(Cl)c2c1-c1ccccc1`, `Fc1cc2cccnc2cc1F` is lower in melting point: 144 to 146 °C for the first, 109 to 111 °C for the second.

First: CCCc1nonc1N
Second: CCCCN1C(=O)c2ccc(C(=O)O)cc2C1=O
The melting point of the first is lower: 29 to 31 °C for the first, 152 to 154 °C for the second.

First: COc1ccc(C=NO)cc1
Second: NC(=O)Nc1ccc(S(=O)(=O)F)cc1
The melting point of the first is lower: 64 to 66 °C for the first, 177 to 179 °C for the second.

First: Nc1ccc(S(N)(=O)=O)cn1
Second: N#CCC(=O)c1c[nH]c2cc(F)ccc12
The melting point of the first is lower: 171 to 173 °C for the first, 265 to 267 °C for the second.

Source: a melting point compilation (Tetko et al.)
